From PubChem BioAssay (NCI)
“And” between values parts separate entries of the source, which are not always exact repeats. Identical values can stand only once.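 Each compound was tested at five concentrations against cells in 96-well plates for 48 hours. GI50 = concentration required for 50% inhibition of growth. TGI denotes the concentration required for complete inhibition of growth.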

Columns and labels:
Assay in all cases: NCI tumour cell line growth inhibition, 48 h
KM12 colon = system: KM12 colon
OVCAR-4 ovarian = system: OVCAR-4 ovarian
U251 CNS = system: U251 CNS
NCI-H23 lung = system: NCI-H23 lung
HCT-116 colon = system: HCT-116 colon
PC-3 prostate = system: PC-3 prostate
SNB-19 CNS = system: SNB-19 CNS
UACC-62 melanoma = system: UACC-62 melanoma
HCC-2998 colon = system: HCC-2998 colon
SF-268 CNS = system: SF-268 CNS
A549 NSCLC = system: A549 NSCLC
K-562 leukemia = system: K-562 leukemia
NCI/ADR-RES ovarian = system: NCI/ADR-RES ovarian
RXF 393 renal = system: RXF 393 renal
SK-OV-3 ovarian = system: SK-OV-3 ovarian
SNB-75 CNS = system: SNB-75 CNS
MALME-3M melanoma = system: MALME-3M melanoma
NCI-H522 lung = system: NCI-H522 lung
HOP-62 NSCLC = system: HOP-62 NSCLC
OVCAR-5 ovarian = system: OVCAR-5 ovarian
MDA-N = system: MDA-N
NCI-H226 lung = system: NCI-H226 lung
OVCAR-8 ovarian = system: OVCAR-8 ovarian
HT29 colon = system: HT29 colon
UACC-257 melanoma = system: UACC-257 melanoma
HCT-15 colon = system: HCT-15 colon
CAKI-1 renal = system: CAKI-1 renal
HL-60(TB) leukemia = system: HL-60(TB) leukemia
DU-145 prostate = system: DU-145 prostate
SR leukemia = system: SR leukemia
IGROV1 ovarian = system: IGROV1 ovarian
UO-31 renal = system: UO-31 renal
MDA-MB-435 = system: MDA-MB-435
M14 melanoma = system: M14 melanoma
BT-549 breast = system: BT-549 breast
SF-295 CNS = system: SF-295 CNS
T-47D breast = system: T-47D breast
EKVX NSCLC = system: EKVX NSCLC
OVCAR-3 ovarian = system: OVCAR-3 ovarian
SW-620 colon = system: SW-620 colon
MDA-MB-231 breast = system: MDA-MB-231 breast
NCI-H460 lung = system: NCI-H460 lung
HS 578T breast = system: HS 578T breast
ACHN renal = system: ACHN renal
HOP-92 NSCLC = system: HOP-92 NSCLC
MCF7 breast = system: MCF7 breast
SK-MEL-2 melanoma = system: SK-MEL-2 melanoma
SF-539 CNS = system: SF-539 CNS
LOX IMVI melanoma = system: LOX IMVI melanoma
786-0 renal = system: 786-0 renal
CCRF-CEM leukemia = system: CCRF-CEM leukemia
SK-MEL-5 melanoma = system: SK-MEL-5 melanoma
TK-10 renal = system: TK-10 renal
SN12C renal = system: SN12C renal
MOLT-4 leukemia = system: MOLT-4 leukemia
COLO 205 colon = system: COLO 205 colon
SK-MEL-28 melanoma = system: SK-MEL-28 melanoma
A498 renal = system: A498 renal
RPMI-8226 leukemia = system: RPMI-8226 leukemia

C[C@@]12C(=O)OC(=O)[C@]1(C)[C@H]1CC[C@@H]2O1
GI50 (KM12 colon): 1.37 µM | TGI (KM12 colon): 2.76 µM and 17.5 µM | GI50 (OVCAR-4 ovarian): 1.79 µM | TGI (OVCAR-4 ovarian): 3.88 µM and 8.61 µM | TGI (U251 CNS): 2.64 µM and 2.91 µM | GI50 (NCI-H23 lung): 2.79 µM | TGI (NCI-H23 lung): 11.4 µM and 20.6 µM | TGI (HCT-116 colon): 4.38 µM and 4.91 µM | GI50 (PC-3 prostate): 0.525 µM | TGI (PC-3 prostate): 2.02 µM and 1.23 µM | GI50 (SNB-19 CNS): 1.23 µM | TGI (SNB-19 CNS): 2.53 µM and 2.83 µM | GI50 (UACC-62 melanoma): 1.36 µM | TGI (UACC-62 melanoma): 2.86 µM and 7.48 µM | GI50 (HCC-2998 colon): 1.03 µM | TGI (HCC-2998 colon): 3 µM and 2.69 µM | GI50 (SF-268 CNS): 0.477 µM | TGI (SF-268 CNS): 1.75 µM and 3.85 µM | GI50 (A549 NSCLC): 1.09 µM | TGI (A549 NSCLC): 2.92 µM and 4.9 µM | GI50 (K-562 leukemia): 2.78 µM | TGI (K-562 leukemia): 10.1 µM and 8.85 µM | GI50 (NCI/ADR-RES ovarian): 1.87 µM | TGI (NCI/ADR-RES ovarian): 4.94 µM and 25.5 µM | TGI (RXF 393 renal): 1.46 µM and 1.7 µM | GI50 (SK-OV-3 ovarian): 1.48 µM | TGI (SK-OV-3 ovarian): 3.36 µM and 5.24 µM | GI50 (SNB-75 CNS): 0.698 µM | TGI (SNB-75 CNS): 1.91 µM and 1.56 µM | GI50 (MALME-3M melanoma): 1.5 µM | TGI (MALME-3M melanoma): 2.99 µM and 3.08 µM | GI50 (NCI-H522 lung): 1.11 µM | TGI (NCI-H522 lung): 2.43 µM and 3.21 µM | GI50 (HOP-62 NSCLC): 1.81 µM | TGI (HOP-62 NSCLC): 3.34 µM and 5.73 µM | GI50 (OVCAR-5 ovarian): 1.3 µM | TGI (OVCAR-5 ovarian): 3.46 µM and 7.72 µM | GI50 (MDA-N): 1.29 µM | TGI (MDA-N): 2.67 µM and 9.02 µM | GI50 (NCI-H226 lung): 1.5 µM | TGI (NCI-H226 lung): 2.97 µM | GI50 (OVCAR-8 ovarian): 2.1 µM | TGI (OVCAR-8 ovarian): 4.93 µM and 18 µM | TGI (HT29 colon): 3.43 µM and 5.93 µM | GI50 (UACC-257 melanoma): 1.49 µM | TGI (UACC-257 melanoma): 3.11 µM and 9.63 µM | GI50 (HCT-15 colon): 2.03 µM | TGI (HCT-15 colon): 4.7 µM and 13.8 µM | TGI (CAKI-1 renal): 2.11 µM and 2.29 µM | GI50 (HL-60(TB) leukemia): 1.39 µM | TGI (HL-60(TB) leukemia): 3.77 µM and 4.07 µM | GI50 (DU-145 prostate): 1.37 µM | TGI (DU-145 prostate): 2.82 µM and 2.81 µM | GI50 (SR leukemia): 6.78 µM | TGI (SR leukemia): 44.9 µM and 15.3 µM | GI50 (IGROV1 ovarian): 1.8 µM | TGI (IGROV1 ovarian): 3.82 µM and 7.78 µM | GI50 (UO-31 renal): 1.51 µM | TGI (UO-31 renal): 2.85 µM and 7.06 µM | GI50 (MDA-MB-435): 1.62 µM | TGI (MDA-MB-435): 3.02 µM and 4.43 µM | TGI (M14 melanoma): 2.87 µM and 3.48 µM | TGI (BT-549 breast): 3.06 µM and 3.29 µM | TGI (SF-295 CNS): 2.85 µM and 3.22 µM | GI50 (T-47D breast): 1.47 µM | TGI (T-47D breast): 3.14 µM and 4.88 µM | GI50 (EKVX NSCLC): 0.556 µM | TGI (EKVX NSCLC): 1.76 µM and 1.9 µM | GI50 (OVCAR-3 ovarian): 0.871 µM | TGI (OVCAR-3 ovarian): 2.19 µM and 2.23 µM | GI50 (SW-620 colon): 3.07 µM | TGI (SW-620 colon): 10.9 µM and 16.6 µM | GI50 (MDA-MB-231 breast): 1.51 µM | TGI (MDA-MB-231 breast): 3.04 µM and 3.24 µM | GI50 (NCI-H460 lung): 2.45 µM | TGI (NCI-H460 lung): 10.3 µM and 9.87 µM | GI50 (HS 578T breast): 1.36 µM and 1.56 µM | TGI (HS 578T breast): 3 µM and 3.29 µM | TGI (ACHN renal): 2.43 µM and 2.83 µM | GI50 (HOP-92 NSCLC): 0.846 µM | TGI (HOP-92 NSCLC): 2.2 µM and 2.96 µM | TGI (MCF7 breast): 2.29 µM and 21.3 µM | GI50 (SK-MEL-2 melanoma): 1.26 µM | TGI (SK-MEL-2 melanoma): 2.77 µM and 3.38 µM | GI50 (SF-539 CNS): 1.62 µM | TGI (SF-539 CNS): 3.09 µM and 4.5 µM | GI50 (LOX IMVI melanoma): 1.44 µM | TGI (LOX IMVI melanoma): 2.89 µM and 6.79 µM | GI50 (786-0 renal): 1.47 µM | TGI (786-0 renal): 2.85 µM and 3.56 µM | GI50 (CCRF-CEM leukemia): 1.59 µM | TGI (CCRF-CEM leukemia): 10.8 µM and 7.85 µM | GI50 (SK-MEL-5 melanoma): 1.1 µM | TGI (SK-MEL-5 melanoma): 2.33 µM and 2.77 µM | GI50 (TK-10 renal): 0.25 µM | TGI (TK-10 renal): 0.608 µM and 0.792 µM | GI50 (SN12C renal): 1.58 µM | TGI (SN12C renal): 3.21 µM and 4.43 µM | GI50 (MOLT-4 leukemia): 3.88 µM | TGI (MOLT-4 leukemia): 18 µM and 28.8 µM | TGI (COLO 205 colon): 1.69 µM and 1.01 µM | GI50 (SK-MEL-28 melanoma): 1.54 µM | TGI (SK-MEL-28 melanoma): 3 µM and 11.1 µM | GI50 (A498 renal): 1.47 µM | TGI (A498 renal): 2.84 µM and 2.69 µM | GI50 (RPMI-8226 leukemia): 3.15 µM | TGI (RPMI-8226 leukemia): 18.2 µM and 6.29 µM

CCOC(=O)/C=C(\C(=O)OCC)n1ccc(=O)n(Cc2cnnn2COCCOC(C)=O)c1=O
TGI (KM12 colon): 32.1 µM | TGI (OVCAR-4 ovarian): 54.8 µM | TGI (U251 CNS): 32.6 µM | TGI (NCI-H23 lung): 33.1 µM | TGI (HCT-116 colon): 41.7 µM | TGI (PC-3 prostate): 33.7 µM | TGI (SNB-19 CNS): > 66.4 µM | TGI (UACC-62 melanoma): 31 µM | TGI (HCC-2998 colon): 33.4 µM | TGI (SF-268 CNS): 36.4 µM | TGI (A549 NSCLC): 43.4 µM | TGI (K-562 leukemia): > 100 µM | TGI (NCI/ADR-RES ovarian): 58.7 µM | TGI (RXF 393 renal): 14.5 µM | TGI (SK-OV-3 ovarian): > 100 µM | TGI (SNB-75 CNS): 40.1 µM | TGI (MALME-3M melanoma): 4.34 µM | TGI (NCI-H522 lung): 3.53 µM | TGI (HOP-62 NSCLC): 38.5 µM | TGI (OVCAR-5 ovarian): 32 µM | TGI (MDA-N): 33 µM | TGI (NCI-H226 lung): 43.2 µM | TGI (OVCAR-8 ovarian): 27.3 µM | TGI (HT29 colon): 28.1 µM | TGI (UACC-257 melanoma): 30.8 µM | TGI (HCT-15 colon): > 41.3 µM | TGI (CAKI-1 renal): 7.62 µM | TGI (HL-60(TB) leukemia): 2.04 µM | TGI (DU-145 prostate): 37.7 µM | TGI (SR leukemia): > 31.2 µM | TGI (IGROV1 ovarian): 36.7 µM | TGI (UO-31 renal): 30.5 µM | TGI (MDA-MB-435): 22.5 µM | TGI (M14 melanoma): 31.7 µM | TGI (BT-549 breast): 22.3 µM | TGI (SF-295 CNS): > 66.6 µM | TGI (T-47D breast): 27.5 µM | TGI (EKVX NSCLC): 32.6 µM | TGI (OVCAR-3 ovarian): 25.1 µM | TGI (SW-620 colon): 5.93 µM | TGI (MDA-MB-231 breast): 35 µM | TGI (NCI-H460 lung): 34.1 µM | TGI (HS 578T breast): 61.6 µM | TGI (ACHN renal): 10.2 µM | TGI (HOP-92 NSCLC): 2.16 µM | TGI (MCF7 breast): 21.4 µM | TGI (SK-MEL-2 melanoma): 38.5 µM | TGI (SF-539 CNS): 5.66 µM | TGI (LOX IMVI melanoma): > 40.7 µM | TGI (786-0 renal): 15.3 µM | TGI (CCRF-CEM leukemia): 4.53 µM | TGI (SK-MEL-5 melanoma): 54.3 µM | TGI (TK-10 renal): 12.6 µM | TGI (SN12C renal): 36.2 µM | TGI (MOLT-4 leukemia): 10.3 µM | TGI (COLO 205 colon): 4.36 µM | TGI (SK-MEL-28 melanoma): 25.2 µM | TGI (A498 renal): 41.3 µM | TGI (RPMI-8226 leukemia): > 42 µM
